These results are taken from US6642036B2, “Sinapoylglucose:malate sinapoyltransferase form malate conjugates from benozic acid glucosides” (E. I. Du Pont de Nemours and Company, priority 2000, dated 2003).

Where two headings read alike, the source gives them in different places.

The target in data set [1] is T1, recombinantly produced, refolded SMT protein (Arabidopsis thaliana, UniProt Q8RUW5, A20T/S19M).
T1 construct: consisting primarily of recombinant mature Arabidopsis SMT and some minor protein contaminants; initiator Met (start codon added in place of the signal peptide) (N); made in house
In kind it is biochemical. Particulars: for acceptance as acyl acceptor with sinapoylglucose or PHBA 1-O-acylglucoside: 200 ng SMT, 500 μM glucose ester, 400 mM alcohol, pH 6.2, 30° C. for 16 h. The procedure:
Sinapoyl glucose was purified from the sng1 mutant of Arabidopsis as described by Lorenzen et al. (Plant Physiology 112:1625-1630 (1996)). The SMT assay contained 12.5 μL of 0.5 mM sinapoyl glucose in 100 mM potassium phosphate buffer (pH 7.5), 5 μL of 100 mM potassium phosphate buffer (pH 6.0), 5 μL of 1 M malic acid in potassium phosphate buffer (pH 6.0) and 5 μL of E. coli extract corresponding to 100 μg of protein. Assays were incubated for 14 h at 30° C., stopped by addition of 30 μL of methanol and stored at −70° C. before analysis by HPLC. Enzyme assays were analyzed by HPLC on a Nova-Pak® Pak® C18 column (60 Å pore size, […] particle size) using a gradient from 6% acetonitrile, 1.5% phosphoric acid to 48% acetonitrile, followed by 1.5% phosphoric acid and UV detection at 335 nm.
Approximately 250 ng of recombinantly produced, refolded SMT protein was incubated with 200 mM malate, 0.1 mM PHBA 1-O-acyl glucoside in a 25 μL reaction in 100 mM potassium phosphate buffer (pH 6.2) for 12 h at 30° C. Reaction products were separated by HPLC as described in the General Methods. […] The compound was analyzed by LC-MS as described in the General Methods.
The activity of the SMT enzyme was determined using sinapoyl glucose and L-lactate as follows. 1 μg of partially purified recombinant SMT protein was incubated with 500 μM sinapoyl glucose in 100 mM potassium phosphate buffer (pH 6.2) in the absence or presence of 200 mM L-lactate. Enzyme reactions were incubated at 30° C. for 12 h. Reaction products were analyzed by HPLC as described in the General Methods.
Activity of the SMT enzyme was determined using sinapoylglucose or PHBA 1-O-acylglucoside and methanol, ethanol and isopropanol. Briefly, 200 ng of partially purified recombinantly produced SMT protein was incubated with 500 μM of the glucose ester of sinapic acid or PHBA in 100 mM potassium phosphate buffer (pH 6.2) in the absence or presence of 400 mM of the respective alcohols in 100 μL enzyme reactions. Enzyme reactions were incubated at 30° C. for 16 h. All reaction products were analyzed by HPLC as described in Example 1.

Data set [2] deals with SMT (sinapoylglucose:malate sinapoyltransferase) (Arabidopsis thaliana, UniProt Q8RUW5, A20T/S19M). As to the method:
Sinapoyl glucose was purified from the sng1 mutant of Arabidopsis as described by Lorenzen et al. (Plant Physiology 112:1625-1630 (1996)). […] Assays were incubated for 14 h at 30° C., stopped by addition of 30 μL of methanol and stored at −70° C. before analysis by HPLC. Enzyme assays were analyzed by HPLC on a Nova-Pak® Pak® C18 column (60 Å pore size, […] particle size) using a gradient from 6% acetonitrile, 1.5% phosphoric acid to 48% acetonitrile, followed by 1.5% phosphoric acid and UV detection at 335 nm.

For data set [3], the system named is O=C(O)CC(O)C(=O)O. As to the kind of experiment: purified protein, by the assay type. Conditions: other: 30° C., 500 μM sinapoyl glucose, 100 mM potassium phosphate buffer (pH 6.8), 50 ng partially purified SMT, Hofstee plot.
Data set [4] addresses T2, sinapoyl glucose and L-malate (SMT reaction) (Arabidopsis thaliana, UniProt Q8RUW5, A20T/S19M).
T2 construct: consisting primarily of recombinant mature Arabidopsis SMT and some minor protein contaminants; initiator Met (start codon added in place of the signal peptide) (N); made in house
In words: Turnover number of purified recombinant SMT folded from inclusion bodies. It counts as biochemical. Particulars: 30° C., 100 mM potassium phosphate buffer (pH 6.2), 500 μM sinapoyl glucose, 200 mM L-malate. As to the method:
As judged by SDS-PAGE and Coomassie-blue staining, the folded recombinant protein was at least 80% pure and the final yield of active SMT from the 100 mL folding reaction was ˜6 μg, corresponding to ˜0.52% of the original inclusion body material. The turnover number for purified recombinant SMT folded from inclusion bodies was ˜18/sec at 30° C., which compares favorably to the 11.5/sec value that was previously reported for the authentic protein purified from radish (Graewe et al., Planta 187:236-241 (1992)). For this determination the 25 μL enzyme reaction contained 100 mM potassium phosphate buffer (pH 6.2), 500 μM sinapoyl glucose and 200 mM L-malate.

As to `CCO` [ethanol], in data set [1], the “acceptance as acyl acceptor with sinapoylglucose or PHBA 1-O-acylglucoside” value was “production of methyl, ethyl and isopropyl esters of sinapic acid and PHBA”.
Same read-out and setting: under `CC(C)O` [isopropanol] stands “production of methyl, ethyl and isopropyl esters of sinapic acid and PHBA”.
Take `C[C@H](O)C(=O)O` [L-lactate]: the “acceptance as acyl acceptor with sinapoyl glucose” value in data set [1] (1 μg SMT, 500 μM sinapoyl glucose, 200 mM L-lactate, pH 6.2, 30° C. for 12 h, product m/z agrees with sinapoyl lactate) is on record as “a new compound that absorbs at 335 nm is produced”.
For the molecule `O=C(O[C@@H]1O[C@H](CO)[C@@H](O)[C@H](O)[C@H]1O)c1ccc(O)cc1` [PHBA 1-O-acyl glucoside], the “Vmax of SMT for PHBA 1-O-acyl glucoside” value in data set [2] (30° C., 200 mM malate, 500 ng partially purified SMT, y-intercept of regression curve) was 0.2482 μmol min^−1 mg^−1 protein. Further, the Km in data set [2] (read-out: Km of SMT for PHBA 1-O-acyl glucoside, 30° C., 200 mM malate, 100 mM potassium phosphate buffer (pH 6.8), 500 ng partially purified SMT, PHBA malate synthesis, Hofstee plot) was roughly 354 µM. The “conversion by SMT in the presence of malate” value in data set [1] (250 ng SMT, 200 mM malate, 0.1 mM PHBA 1-O-acyl glucoside, pH 6.2, 12 h at 30° C., product m/z agrees with PHBA malate) is listed as “converted to a new compound”.
Turning to “SMT (sinapoylglucose:malate sinapoyltransferase) (Arabidopsis thaliana; A20T/S19M)”, in data set [3], the Km was 42000 µM.
Take `COc1cc(/C=C/C(=O)O[C@@H]2O[C@H](CO)[C@@H](O)[C@H](O)[C@H]2O)cc(OC)c1O` [sinapoyl glucose]: the “Vmax of SMT for sinapoyl glucose” value in data set [2] (30° C., 200 mM malate, 50 ng partially purified SMT, y-intercept of regression curve) worked out at 21.315 μmol min^−1 mg^−1 protein. For the same molecule, the Km in data set [2] (read-out: Km of SMT for sinapoyl glucose, pH 6.8) is roughly 541 µM.
Take `CO` [methanol]: the “acceptance as acyl acceptor with sinapoylglucose or PHBA 1-O-acylglucoside” value in data set [1] is “production of methyl, ethyl and isopropyl esters of sinapic acid and PHBA”.

B1: purified recombinant SMT: recombinant mature Arabidopsis sinapoylglucose:malate sinapoyltransferase (SEQ ID NO:7) folded from E. coli inclusion bodies (protein)
chain: MTSIVKFLPGFEGPLPFELETGYIGIGEDENVQFFYYFIKSENNPKEDPLLIWLNGGPGCSCLGGIIFENGPVGLKFEVFNGSAPSLFSTTYSWTKMANIIFLDQPVGSGFSYSKTPIDKTGDISEVKRTHEFLQKWLSRHPQYFSNPLYVVGDSYSGMIVPALVQEISQGNYICCEPPINLQGYMLGNPVTYMDFEQNFRIPYAYGMGLISDEIYEPMKRICNGNYYNVDPSNTQCLKLTEEYHKCTAKINIHHILTPDCDVTNVTSPDCYYYPYHLIECWANDESVREALHIEKGSKGKWARCNRTIPYNHDIVSSIPYHMNNSISGYRSLIYSGDHDIAVPFLATQAWIRSLNYSPIHNWRPWMINNQIAGYTRAYSNKMTFATIKGGGHTAEYRPNETFIMFQRWISGQPL
As to B1, the turnover number in data set [4] was roughly 18 s⁻¹.

The term Km denotes the concentration of substrate that gives half-maximal velocity.
